Results on 17 molecules are retold here after patent US5075296A, “Azacyclooctadiene compound and pharmaceutical use” (Eisai Co., Ltd., priority 1989, dated 1991).

Each structure is given as a SMILES string. ≈ marks a conversion by molar mass, not a printed value.

In one assay the test system is KB cells. Nature of the assay: antitumor activity in vitro with cultured KB cells (growth inhibition, Coulter counter). The settings on record: Homo sapiens, KB, 96 h, four days, 37° C., MEM - 10% calf serum, read-out: ED50 (concentration at which the growth inhibition was substantially 50% based on the control). The assay is classed as cell-based, human. The method, then: The antitumor activity of the compounds of the present invention was determined in vitro with cultured KB cells.
The experiment was conducted by using KB derived from a human epidermoid carcinoma of the mouth and Eagle's minimal essential medium (MEM) - 10% calf serum at 37° C. in a carbon dioxide incubator (5% CO2).
KB cells were diluted at a dilution rate of 1×10^4 /ml medium. 2 ml of the sample thus formed was placed in a 30-mm plastic dish so that the final concentration of the compounds of the present invention would be 100, 30, 10, 3 or 1 μg/ml. After four days, the cells were peeled from the dish surface with trypsin and the number of the cells was counted with a Coulter counter.
The criterion according to NCI (U.S.A.) was employed to determine the concentration (ED50) at which the growth inhibition was substantially 50% based on the control.
Take `COc1cc(CN2C(=O)OCC2Cc2ccc3c(c2)OCO3)cc(OC)c1OC` (stereo not shown) [A-III]: the IC50 is 35 µg/mL (≈ 87.2 µM).
The same measure, in the same setting: as for `COc1cc2c(c(OC)c1O)-c1cc3c(cc1CC1COC(=O)N1C2)OCO3` (stereo not shown) [A-IX-a], the figure is 50 µg/mL (≈ 130 µM); as for `COc1cc2c(c(OC)c1OC)-c1cc3c(cc1CC(CO)N(C)C2)OCO3` (stereo not shown) [A-V-a], 1.5 µg/mL (≈ 3.87 µM); as for `COc1cc2c(c(OC)c1OC)-c1cc3c(cc1CC(COC(C)=O)N(C)C2)OCO3` (stereo not shown) [A-VI-a], 1.65 µg/mL (≈ 3.84 µM).
In the case of `COc1cc2c(c(OC)c1OC)-c1cc3c(cc1CC(CO)N(C=O)C2)OCO3` (stereo not shown) [A-VII-a], the IC50 is below 0.3 µg/mL.
In the case of `COc1c(O)cc2c(c1OC)-c1cc3c(cc1CC1COC(=O)N1C2)OCO3` (stereo not shown) [A-VIII-a], the IC50 was found to be 17 µg/mL (≈ 44.1 µM).
With `COc1cc2c(c(OC)c1OC)-c1cc3c(cc1CC1CNC(=O)N1C2)OCO3` (stereo not shown) [B-VI-b], the IC50 is below 0.3 µg/mL.
For the molecule `COc1cc2c(c(OC)c1OC)-c1cc3c(cc1CC1CN(CC(=O)OC(C)(C)C)C(=O)N1C2)OCO3` (stereo not shown) [B-VII-b], the IC50 worked out at 1.7 µg/mL (≈ 3.32 µM).
Take `COc1cc2c(c(OC)c1OC)-c1cc3c(cc1CC1CN(CC(=O)O)C(=O)N1C2)OCO3` (stereo not shown) [B-VIII-b]: the IC50 amounted to 5.4 µg/mL (≈ 11.8 µM).
Take `COc1cc(CN2C(=O)NCC2Cc2ccc3c(c2)OCO3)cc(OC)c1OC` (stereo not shown) [B-V]: the IC50 stood at 47 µg/mL (≈ 117 µM).
As for `COc1cc(C2c3cc4c(cc3C(N)C3COC(=O)N23)OCO4)cc(OC)c1OC` [D-XI-b], the IC50 is below 0.3 µg/mL.

The assay is the same for the next values; noted with them: four days, 37° C., MEM - 10% calf serum, 5760 min.
As to `COc1cc2c(c(OC)c1OC)-c1cc3c(cc1CC1COC(=O)N1C2)OCO3` (stereo not shown) [A-IV-a], the “ED50 (concentration at which the growth inhibition was substantially 50% based on the control)” value was found to be 47.0 µg/mL (≈ 118 µM).
Take `COc1cc2c(c(OC)c1OC)-c1cc3c(cc1CC1COC(=O)N1C2)OCO3` (stereo not shown) [A-IV-b]: the “ED50 (concentration at which the growth inhibition was substantially 50% based on the control)” value was below 0.3 µg/mL.
On to `COc1cc2c(c(OC)c1OC)-c1cc3c(cc1CC(CO)N(C)C2)OCO3` (stereo not shown) [A-V-b], for which the “ED50 (concentration at which the growth inhibition was substantially 50% based on the control)” value came to 1.1 µg/mL (≈ 2.84 µM).
The same measure, in the same setting: the result for `COc1cc(C2c3cc4c(cc3C(N=[N+]=[N-])C3COC(=O)N23)OCO4)cc(OC)c1OC` [D-X-a] reads 0.68 µg/mL (≈ 1.54 µM); that for `COc1cc(C2c3cc4c(cc3C(N=[N+]=[N-])C3COC(=O)N23)OCO4)cc(OC)c1OC` [D-X-b], below 0.3 µg/mL.

Another assay concerns S-180 salcoma cells. Nature of the assay: antitumor activity in ICR mice inoculated with S-180 salcoma cells (increase in life-span). The assay is classed as in vivo, mouse (female ICR mice). The settings on record: 25 mg/kg, intra-peritoneal, once a day Day 1 to 5; observation period 52 days; saline control 0/12, DMSO 0/7. Here is the method:
Female ICR mice being 6 weeks old were inoculated abdominally with 0.2 ml of a sample of cell suspension in PBS containing 5×10^5 S-180 salcoma cells, on Day 0. Once a day for 5 days (Day 1 to 5) from the next day, they were inoculated abdominally with the above shown compounds of A-IV-b, B-VI-6 and D-I-a, respectively, dispersed in 6 wt. % dimethylsulfoxide solution, with intra-peritoneal injection of 25 or 50 mg/kg. A saline and a solvent were used for reference control. 12 to 7 mice were used in the saline control and the drug test, respectively. Antitumor activity was determined by the mean survival time (prolongation of life) of the test group (T) with that of the control group (C) and is shown in terms of an increase in life-span (prolongation extent of life), that is, ((T/C)×100%). The observation period was 52 days and survivors were excluded from calculation.
For `COc1cc2c(c(OC)c1OC)-c1cc3c(cc1CC1COC(=O)N1C2)OCO3` (stereo not shown) [A-IV-b], the “Number of surviving mice” value was 0/7.
`COc1cc2c(c(OC)c1OC)-c1cc3c(cc1CC1CNC(=O)N1C2)OCO3` (stereo not shown) [B-VI-b]: the “Number of surviving mice” value is recorded as 2/7.
As for `COc1cc(C2c3cc4c(cc3CC3COC(=O)N32)OCO4)cc(OC)c1OC` [D-I-a], the “Number of surviving mice” value is on record as 0/7.

Staying with this assay, now noted: 25 mg/kg, intra-peritoneal, once a day Day 1 to 5; saline control 0, DMSO -11.
As for `COc1cc2c(c(OC)c1OC)-c1cc3c(cc1CC1COC(=O)N1C2)OCO3` (stereo not shown) [A-IV-b], the “Prolongation extent of life” value is -4%.
With `COc1cc2c(c(OC)c1OC)-c1cc3c(cc1CC1CNC(=O)N1C2)OCO3` (stereo not shown) [B-VI-b], the “Prolongation extent of life” value amounted to 50%.
Consider `COc1cc(C2c3cc4c(cc3CC3COC(=O)N32)OCO4)cc(OC)c1OC` [D-I-a], for which the “Prolongation extent of life” value is reported as 62%.

Staying with this assay, now noted: 25 mg/kg, intra-peritoneal, once a day Day 1 to 5; saline control 13.3 ± 3.7, DMSO 12.0 ± 3.0.
As for `COc1cc2c(c(OC)c1OC)-c1cc3c(cc1CC1COC(=O)N1C2)OCO3` (stereo not shown) [A-IV-b], the “Average days of the prolongation of life” value was determined as 12.9 ± 2.3 days.
As to `COc1cc2c(c(OC)c1OC)-c1cc3c(cc1CC1CNC(=O)N1C2)OCO3` (stereo not shown) [B-VI-b], the “Average days of the prolongation of life” value is recorded as 20.2 ± 4.2 days.
The same measure, in the same setting: the result for `COc1cc(C2c3cc4c(cc3CC3COC(=O)N32)OCO4)cc(OC)c1OC` [D-I-a] reads 21.9 ± 4.0 days.

Staying with this assay, now noted: 50 mg/kg, intra-peritoneal, once a day Day 1 to 5; observation period 52 days; saline control 0/12, DMSO 0/7.
On to `COc1cc2c(c(OC)c1OC)-c1cc3c(cc1CC1COC(=O)N1C2)OCO3` (stereo not shown) [A-IV-b], for which the “Number of surviving mice” value is recorded as 0/7.
For the molecule `COc1cc2c(c(OC)c1OC)-c1cc3c(cc1CC1CNC(=O)N1C2)OCO3` (stereo not shown) [B-VI-b], the “Number of surviving mice” value is 0/7.
For the molecule `COc1cc(C2c3cc4c(cc3CC3COC(=O)N32)OCO4)cc(OC)c1OC` [D-I-a], the “Number of surviving mice” value was 0/7.

Still in this assay, the particulars now being: 50 mg/kg, intra-peritoneal, once a day Day 1 to 5; saline control 0, DMSO -11.
For the molecule `COc1cc2c(c(OC)c1OC)-c1cc3c(cc1CC1COC(=O)N1C2)OCO3` (stereo not shown) [A-IV-b], the “Prolongation extent of life” value was 40%.
As to `COc1cc2c(c(OC)c1OC)-c1cc3c(cc1CC1CNC(=O)N1C2)OCO3` (stereo not shown) [B-VI-b], the “Prolongation extent of life” value is 120%.
The same measure, in the same setting: the result for `COc1cc(C2c3cc4c(cc3CC3COC(=O)N32)OCO4)cc(OC)c1OC` [D-I-a] reads 48%.

Still in this assay, the particulars now being: 50 mg/kg, intra-peritoneal, once a day Day 1 to 5; saline control 13.3 ± 3.7, DMSO 12.0 ± 3.0.
With `COc1cc2c(c(OC)c1OC)-c1cc3c(cc1CC1COC(=O)N1C2)OCO3` (stereo not shown) [A-IV-b], the “Average days of the prolongation of life” value came out at 19.0 ± 5.5 days.
The same measure, in the same setting: as for `COc1cc2c(c(OC)c1OC)-c1cc3c(cc1CC1CNC(=O)N1C2)OCO3` (stereo not shown) [B-VI-b], the figure is 29.7 ± 3.9 days.
As for `COc1cc(C2c3cc4c(cc3CC3COC(=O)N32)OCO4)cc(OC)c1OC` [D-I-a], the “Average days of the prolongation of life” value is listed as 20.0 ± 5.6 days.
